Source: patent US5053338A, “Kinetic resolution of pyridazinones using lipase” (Glaxo Inc., priority 1990, dated 1991)

Tests used:
[1] = test system: anesthetized dogs (left ventricular dP/dt); test: Anesthetized Dog: inotropic effect (increase in baseline dP/dt); type: in vivo; conditions: infusion of atenolol
Method: Inotropic effects were evaluated in barbiturate-anesthetized dogs by differentiating left intraventricular pressure. This procedure was carried out essentially as described by M. K. Grizzel et al in the FASEB Journal, Vol. 3, page 1039, abstract 4728 (1989). […] Cardiac output was determined via thermodilution with a Spectramed computer (Starcom, Oxnard, Calif.) and a 5F Swan Ganz catheter which was inserted into the right jugular vein and positioned in the pulmonary artery. […] A lead II electrocardiogram was measured using subcutaneous electrodes. […] Rectal temperature was monitored and maintained at 37°-38° C. with a heating pad (Baxter Health Care model K20, McGaw Park, Ill.). All variables were recorded using a Gould 3800S physiograph.
Isoproterenol ([…]) was injected i.v. into the cephalic vein at 10 min intervals except for when the test drug infusion was begun. […] Inhibition of the isoproterenol responses on contractibility (dP/dt), heart rate and diastolic blood pressure were determined at each dose of test compound. The inotropic effect of each compound was determined by comparing the level of dP/dt at the end of each 10 min period to that of the level of dP/dt just prior to the infusion of test compound. […]

rat aorta [2] = test: Rat Aorta Protocol (relaxation of phenylephrine-contracted rat aorta rings); type: cell-based; conditions: phenylephrine 1×10^-7 M, methylene blue and propranolol present, endothelium removed, read-out: IC50 (concentration producing a relaxation equivalent to 50% of the maximal relaxation induced by nitroprusside)
Method: Such vasorelaxation appears to be related to inhibition of the phosphodiesterase (PDE) isozyme related to the cardiac sarcoplasmic reticulum. Thus, relaxation of rat aorta can be used as a screen to eliminate compounds which are not PDE inhibitors prior to testing for actual inotropic activity.
Rings of rat aorta (endothelium removed) were prepared for the measurement of isometric force in isolated tissue organ chambers essentially as previously described by T. J. Rimele et al in the Journal of Pharmacol. Exp. Ther. 245:102-111 (1988). The experimental portion of the protocol began with the addition of methylene blue (1×10^-5 M) and propranolol (1×10^-6 M) to each organ chamber to inhibit basal cGMP accumulation due to soluble guanylate cyclase and beta-adrenoceptors.Phenylephrine (1×10^-7 M) was then added and the rings were allowed to obtain a stable contractile response after which time, the test compound was added in a cumulative fashion. The relaxation induced by each concentration of the test compound was expressed as a percentage of the maximal relaxation produced by nitroprusside (1×10^-4 M) The results were graphically represented as a plot of the percentage relaxation vs. the negative log of the molar concentration of the test compound. […]

rat aorta [3] = conditions: R. F. Kauffman et al., J. Pharmacol. Exp. Ther. 242:864-872 (1987); cited from earlier work

| IC50 (rat aorta [2]) [nM] | Structure (SMILES) | effect of atenolol on the inotropic effects [1] | relaxation of rat aorta (rat aorta [3]) |
| --- | --- | --- | --- |
| 340 | O=C(COc1ccc(C2=NNC(=O)CC2)cc1Cl)NCCNC[C@H](O)COc1ccccc1 [Example 19, 6-{4-[N-[2-[3-phenoxy-2-hydroxypropylamino]ethyl]carbamoylmethoxy]-3-chlorophenyl}-4,5-dihydro-3(2H)-pyridazinone] | not blocked by atenolol | – |
| – | CSc1ccc(C(=O)c2[nH]c(=O)[nH]c2C)cc1 [enoximone] | – | marked relaxation |
| – | Cc1[nH]c(=O)c(C#N)cc1-c1ccncc1 [milrinone] | – | marked relaxation |
